Data as given in patent US20240341307A1, “FUNGICIDAL COMPOSITIONS” (SYNGENTA CROP PROTECTION AG, priority 2021, published 2024).

Assays:
Format in all cases: cell-based
Conditions in all cases: alone
Alternaria solani = Alternaria solani (early blight tomato/potato) growth inhibition in nutrient broth, microtiter plate, photometric after 48 hrs
Description: A synergistic effect exists whenever the action of an active ingredient combination is greater than the sum of the actions of the individual components. The action to be expected E for a given active ingredient combination obeys the so-called COLBY formula and can be calculated as follows (COLBY, S. R. “Calculating synergistic and antagonistic responses of herbicide combination”. Weeds, Vol. 15, pages 20-22; 1967): • ppm=milligrams of active ingredient (=a.i.) per liter of spray mixture • X=% action by active ingredient A) using p ppm of active ingredient • Y=% action by active ingredient B) using q ppm of active ingredient. According to COLBY, the expected (additive) action of active ingredients A)+B) using p+q ppm of active ingredient is If the action actually observed (O) is greater than the expected action (E), then the action of the combination is super-additive, i.e. there is a synergistic effect. In mathematical terms, synergism corresponds to a positive value for the difference of (O-E). In the case of purely complementary addition of activities (expected activity), said difference (O-E) is zero. A negative value of said difference (O-E) signals a loss of activity compared to the expected activity. Alternaria solani (Early Blight Tomato/Potato): Conidia of the fungus from cryogenic storage were directly mixed into nutrient broth (PDB potato dextrose broth). A DMSO solution of the test compounds was placed into a microtiter plate (96-well format) and the nutrient broth containing the fungal spores was added to it. The test plates were incubated at 24 C and the inhibition of growth was determined photometrically after 48 hrs.

Botrytis cinerea = Botrytis cinerea (gray mould) growth inhibition in nutrient broth, microtiter plate, photometric after 72 hrs
Description: A synergistic effect exists whenever the action of an active ingredient combination is greater than the sum of the actions of the individual components. The action to be expected E for a given active ingredient combination obeys the so-called COLBY formula and can be calculated as follows (COLBY, S. R. “Calculating synergistic and antagonistic responses of herbicide combination”. Weeds, Vol. 15, pages 20-22; 1967): • ppm=milligrams of active ingredient (=a.i.) per liter of spray mixture • X=% action by active ingredient A) using p ppm of active ingredient • Y=% action by active ingredient B) using q ppm of active ingredient. According to COLBY, the expected (additive) action of active ingredients A)+B) using p+q ppm of active ingredient is If the action actually observed (O) is greater than the expected action (E), then the action of the combination is super-additive, i.e. there is a synergistic effect. In mathematical terms, synergism corresponds to a positive value for the difference of (O-E). In the case of purely complementary addition of activities (expected activity), said difference (O-E) is zero. A negative value of said difference (O-E) signals a loss of activity compared to the expected activity. Botrytis cinerea (GRAY Mould): Conidia of the fungus from cryogenic storage were directly mixed into nutrient broth ([…] potato dextrose broth). A DMSO solution of the test compounds was placed into a microtiter plate (96-well format) and the nutrient broth containing the fungal spores was added to it. The test plates were incubated at 24 C and the inhibition of growth was determined photometrically after 72 hrs.

Sclerotinia sclerotiorum = Sclerotinia sclerotiorum (cottony rot, white mold) growth inhibition in nutrient broth, photometric after 72 hrs at 620 nm
Description: A synergistic effect exists whenever the action of an active ingredient combination is greater than the sum of the actions of the individual components. The action to be expected E for a given active ingredient combination obeys the so-called COLBY formula and can be calculated as follows (COLBY, S. R. “Calculating synergistic and antagonistic responses of herbicide combination”. Weeds, Vol. 15, pages 20-22; 1967): • ppm=milligrams of active ingredient (=a.i.) per liter of spray mixture • X=% action by active ingredient A) using p ppm of active ingredient • Y=% action by active ingredient B) using q ppm of active ingredient. According to COLBY, the expected (additive) action of active ingredients A)+B) using p+q ppm of active ingredient is If the action actually observed (O) is greater than the expected action (E), then the action of the combination is super-additive, i.e. there is a synergistic effect. In mathematical terms, synergism corresponds to a positive value for the difference of (O-E). In the case of purely complementary addition of activities (expected activity), said difference (O-E) is zero. A negative value of said difference (O-E) signals a loss of activity compared to the expected activity. Sclerotinia sclerotiorum (Cottony Rot, White Mold, Etc.) Mycelial fragments of the fungus prepared from a fresh liquid culture were directly mixed into nutrient broth (PDB potato dextrose broth). A DMSO solution of the test compounds was placed into a microtiter plate (96-well format) and the nutrient broth containing the fungal spores was added to it. The test plates were incubated at 24 C and the inhibition of growth was determined photometrically after 72 hrs at 620 nm.

[1] = test system: Glomerella lapenarium Syn. Colletotrichum lapenarium; experiment: Glomerella lapenarium syn. Colletotrichum lapenarium (anthracnose of cucurbits) growth inhibition in nutrient broth, photometric after 72 hrs at 620 nm
Description: A synergistic effect exists whenever the action of an active ingredient combination is greater than the sum of the actions of the individual components. The action to be expected E for a given active ingredient combination obeys the so-called COLBY formula and can be calculated as follows (COLBY, S. R. “Calculating synergistic and antagonistic responses of herbicide combination”. Weeds, Vol. 15, pages 20-22; 1967): • ppm=milligrams of active ingredient (=a.i.) per liter of spray mixture • X=% action by active ingredient A) using p ppm of active ingredient • Y=% action by active ingredient B) using q ppm of active ingredient. According to COLBY, the expected (additive) action of active ingredients A)+B) using p+q ppm of active ingredient is If the action actually observed (O) is greater than the expected action (E), then the action of the combination is super-additive, i.e. there is a synergistic effect. In mathematical terms, synergism corresponds to a positive value for the difference of (O-E). In the case of purely complementary addition of activities (expected activity), said difference (O-E) is zero. A negative value of said difference (O-E) signals a loss of activity compared to the expected activity. Glomerella lapenarium Syn. Colletotrichum lapenarium (Anthracnose of Cucurbits): Conidia of the fungus from cryogenic storage were directly mixed into nutrient broth ([…] potato dextrose broth). A DMSO solution of the test compounds was placed into a microtiter plate (96-well format) and the nutrient broth containing the fungal spores was added to it. The test plates were incubated at 24 C and the inhibition of growth was determined photometrically after 72 hrs at 620 nm.

[2] = test system: Mycosphaerella arachidis syn. Cercospora arachidicola; experiment: Mycosphaerella arachidis syn. Cercospora arachidicola (brown leaf spot of peanut) growth inhibition in nutrient broth, photometric after 5-6 days at 620 nm
Description: A synergistic effect exists whenever the action of an active ingredient combination is greater than the sum of the actions of the individual components. The action to be expected E for a given active ingredient combination obeys the so-called COLBY formula and can be calculated as follows (COLBY, S. R. “Calculating synergistic and antagonistic responses of herbicide combination”. Weeds, Vol. 15, pages 20-22; 1967): • ppm=milligrams of active ingredient (=a.i.) per liter of spray mixture • X=% action by active ingredient A) using p ppm of active ingredient • Y=% action by active ingredient B) using q ppm of active ingredient. According to COLBY, the expected (additive) action of active ingredients A)+B) using p+q ppm of active ingredient is If the action actually observed (O) is greater than the expected action (E), then the action of the combination is super-additive, i.e. there is a synergistic effect. In mathematical terms, synergism corresponds to a positive value for the difference of (O-E). In the case of purely complementary addition of activities (expected activity), said difference (O-E) is zero. A negative value of said difference (O-E) signals a loss of activity compared to the expected activity. Mycosphaerella arachidis syn. Cercospora arachidicola (Brown leaf spot of peanut): Conidia of the fungus from cryogenic storage were directly mixed into nutrient broth (PDB potato dextrose broth). A DMSO solution of the test compounds was placed into a microtiter plate (96-well format) and the nutrient broth containing the fungal spores was added to it. The test plates were incubated at 24 C and the inhibition of growth was determined photometrically after 5-6 days at 620 nm

**Q.** `O=C(NC1CCC1c1ccc(Cl)cc1Cl)c1cccnc1C(F)(F)F` (stereo in doubt) [Cyclobutrifluram, cyclobutrifluram] was tested. Which “Observed Activity (%)” value (Alternaria solani; 0.0008 ppm) did it give?
**A.** 0%

**Q.** What about the “Observed Activity (%)” value (Alternaria solani; 0.00246 ppm) of the same compound?
**A.** 20%

**Q.** What about the “Observed Activity (%)” value (Alternaria solani; 0.0074 ppm) of the same compound?
**A.** 50%

**Q.** And the “Observed Activity (%)” value (Alternaria solani; 0.022 ppm)?
**A.** 70%

**Q.** What about the “Observed Activity (%)” value (Botrytis cinerea; 0.066 ppm) of the same compound?
**A.** 20%

**Q.** What about the “Observed Activity (%)” value (Botrytis cinerea; 0.074 ppm) of the same compound?
**A.** 20%

**Q.** And the “Observed Activity (%)” value (Botrytis cinerea; 0.2 ppm)?
**A.** 50%

**Q.** What about the “Observed Activity (%)” value (Botrytis cinerea; 0.22 ppm) of the same compound?
**A.** 50%

**Q.** And the “Observed Activity (%)” value (Botrytis cinerea; 0.66 ppm)?
**A.** 70%

**Q.** What about the “Observed Activity (%)” value (Sclerotinia sclerotiorum; 0.074 ppm) of the same compound?
**A.** 20%

**Q.** What does the source list for `CCS(=O)(=O)c1cc(C(F)(F)F)ccc1C(=O)N(C(C)=O)c1ccc(OC(F)(F)F)cc1C(=O)OC` [Compound A-1.1, Methyl 2-[acetyl-[2-ethylsulfonyl-4-(trifluoromethyl)benzoyl]amino]-5-(trifluoromethoxy)benzoate]?
**A.** inhibition at 1 ppm (Alternaria solani; Alternaria solani, 1 ppm, read-out: Observed Activity (%)): 50%; inhibition at 2 ppm (Alternaria solani; Alternaria solani, 2 ppm, read-out: Observed Activity (%)): 50%; inhibition at 1 ppm (Botrytis cinerea; Botrytis cinerea, 1 ppm, read-out: Observed Activity (%)): 50%; inhibition at 2 ppm (Botrytis cinerea; Botrytis cinerea, 2 ppm, read-out: Observed Activity (%)): 50%; inhibition at 10 ppm (Botrytis cinerea; Botrytis cinerea, 10 ppm, read-out: Observed Activity (%)): 50%; inhibition at 20 ppm (Botrytis cinerea; Botrytis cinerea, 20 ppm, read-out: Observed Activity (%)): 50%; inhibition at 1 ppm ([1]; Colletotrichum, 1 ppm, read-out: Observed Activity (%)): 0%; inhibition at 2 ppm ([1]; Colletotrichum, 2 ppm, read-out: Observed Activity (%)): 0%; inhibition at 10 ppm ([1]; Colletotrichum, 10 ppm, read-out: Observed Activity (%)): 70%; inhibition at 20 ppm ([1]; Colletotrichum, 20 ppm, read-out: Observed Activity (%)): 70%; inhibition at 10 ppm ([2]; Mycosphaerella arachidis, 10 ppm, read-out: Observed Activity (%)): 0%; inhibition at 20 ppm ([2]; Mycosphaerella arachidis, 20 ppm, read-out: Observed Activity (%)): 0%; inhibition at 10 ppm (Sclerotinia sclerotiorum; Sclerotinia sclerotiorum, 10 ppm, read-out: Observed Activity (%)): 0%; inhibition at 20 ppm (Sclerotinia sclerotiorum; Sclerotinia sclerotiorum, 20 ppm, read-out: Observed Activity (%)): 0%

**Q.** For `O=C(Nc1ccccc1F)c1ccc(-c2noc(C(F)(F)F)n2)cc1` [Flufenoxadiazam, flufenoxadiazam], which “Observed Activity (%)” value ([1]; 0.08 ppm) is on record?
**A.** 20%

**Q.** What about the “Observed Activity (%)” value ([1]; 0.246 ppm) of the same compound?
**A.** 20%

**Q.** What about the “Observed Activity (%)” value ([1]; 0.74 ppm) of the same compound?
**A.** 20%

**Q.** What about the “Observed Activity (%)” value ([1]; 2.22 ppm) of the same compound?
**A.** 20%

**Q.** What does the source list for `N#Cc1ccc(Oc2ccc(C(F)(F)C(O)(Cn3[nH]cnc3=S)c3ccc(F)cc3F)nc2)cc1` (stereo not drawn) [Fluoxytioconazole, fluoxytioconazole]?
**A.** Observed Activity (%) (Botrytis cinerea; 0.22 ppm): 0%; Observed Activity (%) (Botrytis cinerea; 0.66 ppm): 0%; Observed Activity (%) (Botrytis cinerea; 2 ppm): 0%; Observed Activity (%) (Botrytis cinerea; 6 ppm): 20%

**Q.** What does the source list for `CCC(=O)Oc1c(OC)ccnc1C(=O)N[C@@H](C)C(=O)O[C@@H](C)[C@@H](C)c1ccccc1C` [Metarylpicoxamid, metarylpicoxamid]?
**A.** Observed Activity (%) (Alternaria solani; 0.22 ppm): 20%; Observed Activity (%) (Alternaria solani; 0.66 ppm): 50%; Observed Activity (%) (Alternaria solani; 2 ppm): 50%; Observed Activity (%) (Botrytis cinerea; 0.0246 ppm): 0%; Observed Activity (%) (Botrytis cinerea; 0.074 ppm): 20%; Observed Activity (%) (Botrytis cinerea; 0.22 ppm): 50%; Observed Activity (%) (Botrytis cinerea; 0.66 ppm): 70%; Observed Activity (%) ([1]; 2 ppm): 70%; Observed Activity (%) ([2]; 0.0246 ppm): 20%

**Q.** How did the “Observed Activity (%)” value (Alternaria solani; 0.0008 ppm) turn out when `CON(C(=O)c1cn(C)nc1C(F)F)C(C)Cc1c(Cl)cc(Cl)cc1Cl` (stereo not drawn) [Pydiflumetofen, pydiflumetofen] was run?
**A.** 0%

**Q.** What about the “Observed Activity (%)” value (Alternaria solani; 0.00246 ppm) of the same compound?
**A.** 50%

**Q.** What about the “Observed Activity (%)” value (Alternaria solani; 0.0074 ppm) of the same compound?
**A.** 70%

**Q.** What about the “Observed Activity (%)” value (Botrytis cinerea; 0.0008 ppm) of the same compound?
**A.** 0%

**Q.** What about the “Observed Activity (%)” value (Botrytis cinerea; 0.00246 ppm) of the same compound?
**A.** 20%

**Q.** And the “Observed Activity (%)” value (Botrytis cinerea; 0.0074 ppm)?
**A.** 50%

**Q.** And the “Observed Activity (%)” value (Botrytis cinerea; 0.022 ppm)?
**A.** 70%
